The first assay concerns persian speedwell. Put plainly: Test Example 5: herbicidal effect by foliage application, plastic box (Table 20, symbol R). The format is in vivo, Persian speedwell (Veronica persica). To be noted: foliage application, 320 g/ha, evaluated three weeks after application. Put shortly: (§1)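 Sow seeds spot-wise in sterilized diluvial soil; cover with ~1.5 cm soil. Grow 14 days in greenhouse, 25° C. to 30° C. Spray foliage with emulsion diluted to predetermined amount. Rate effect after 3 weeks.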
On to `CCCC(=O)Oc1c(C)nn(C)c(=O)c1-c1c(-c2ccc(SCC)cc2)sc2ccc(F)cc12` [2-245], for which the “herbicidal effect on R: persian speedwell (criteria 0-5)” value is given as 5 (Herbicidal rate of 90% or more (almost completely withered)).

The same assay, now with this note: foliage application, AAH 320 g/ha, evaluated three weeks after application.
In the case of `Cc1nn(C)c(=O)c(-c2c(-c3ccc(SC4CC4)cc3)sc3ccc(F)cc23)c1O` [2-254], the “R: persian speedwell, herbicidal effect (criteria 0-5)” value was 5 (Herbicidal rate of 90% or more (almost completely withered)).

For a further assay, the system named is southern crabgrass. Put plainly: Test Example 4: herbicidal effect by soil treatment (Table 19, symbol F). The settings on record: amount of applied herbicide 320 g/ha. The class given is in vivo, southern crabgrass (Digitaria ciliaris). An outline of the steps: (§2)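 Soil-surface application: an emulsion agent diluted with water to the predetermined dose is sprayed uniformly over seeds lying under roughly 1.5 cm of sterilized diluvial soil. Boxes stay in a greenhouse at 25° C. to 30° C. Three weeks later, each species is graded on previously defined criteria.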
Consider `CCCC(=O)Oc1c(C)nn(C)c(=O)c1-c1c(-c2ccc(SCC)cc2)sc2ccc(F)cc12` [2-245], for which the “herbicidal effect on F: southern crabgrass” value is 4 (Herbicidal rate of 70% or more and less than 90%).

With `Cc1nn(C)c(=O)c(-c2c(-c3ccc(SC4CC4)cc3)sc3ccc(F)cc23)c1O` [2-254], the “herbicidal effect on F: southern crabgrass” value is listed as 5 (Herbicidal rate of 90% or more (almost completely withered)).

The subject of the next assay is blackgrass. Nature of the assay: Test Example 4: herbicidal effect by soil treatment (Table 19, symbol J). The class given is in vivo, blackgrass (Alopecurus myosuroides). To be noted: amount of applied herbicide 320 g/ha. Put shortly: as §2
Consider `CCCC(=O)Oc1c(C)nn(C)c(=O)c1-c1c(-c2ccc(SCC)cc2)sc2ccc(F)cc12` [2-245], for which the “herbicidal effect on J: blackgrass” value is 3 (Herbicidal rate of 40% or more and less than 70%).

Consider `Cc1nn(C)c(=O)c(-c2c(-c3ccc(SC4CC4)cc3)sc3ccc(F)cc23)c1O` [2-254], for which the “herbicidal effect on J: blackgrass” value was 4 (Herbicidal rate of 70% or more and less than 90%).

Another assay has as its system velvetleaf. Nature of the assay: Test Example 4: herbicidal effect by soil treatment (Table 19, symbol M). The format is in vivo, velvetleaf (Abutilon theophrasti). To be noted: amount of applied herbicide 320 g/ha. Put shortly:
as §2
Consider `CCCC(=O)Oc1c(C)nn(C)c(=O)c1-c1c(-c2ccc(SCC)cc2)sc2ccc(F)cc12` [2-245], for which the “herbicidal effect on M: velvetleaf” value was 2 (Herbicidal rate of 20% or more and less than 40%).

Regarding `Cc1nn(C)c(=O)c(-c2c(-c3ccc(SC4CC4)cc3)sc3ccc(F)cc23)c1O` [2-254], the “herbicidal effect on M: velvetleaf” value is 2 (Herbicidal rate of 20% or more and less than 40%).

A further assay has as its system green foxtail. Nature of the assay: Test Example 4: herbicidal effect by soil treatment (Table 19, symbol G). The class given is in vivo, green foxtail (Setaria viridis). To be noted: amount of applied herbicide 320 g/ha. Put shortly: as §2
Take `CCCC(=O)Oc1c(C)nn(C)c(=O)c1-c1c(-c2ccc(SCC)cc2)sc2ccc(F)cc12` [2-245]: the “herbicidal effect on G: green foxtail” value was 5 (Herbicidal rate of 90% or more (almost completely withered)).

As to `Cc1nn(C)c(=O)c(-c2c(-c3ccc(SC4CC4)cc3)sc3ccc(F)cc23)c1O` [2-254], the “herbicidal effect on G: green foxtail” value is recorded as 5 (Herbicidal rate of 90% or more (almost completely withered)).

In a further assay the test system is late watergrass. Nature of the assay: Test Example 2: herbicidal activity, application during weed generation under submerged conditions (Table 17, symbol A). The class given is in vivo, late watergrass (Echinochloa oryzicola). To be noted: AAH 320 g/ha; application during weed generation, submerged conditions. Put shortly:
(§3)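 Alluvial soil in Wagner pots was flooded to 4 cm depth and sown with the three weeds together; pots were kept in a greenhouse at 25° C. to 30° C. At the one to two leaf stage, an emulsion formulation diluted in water to a set rate went onto the water surface; scored three weeks later.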
On to `CCCC(=O)Oc1c(C)nn(C)c(=O)c1-c1c(-c2ccc(SCC)cc2)sc2ccc(F)cc12` [2-245], for which the “herbicidal effect rating, A: late watergrass” value is given as 5 (Herbicidal rate of 90% or more (almost completely withered)).

For the compound `Cc1nn(C)c(=O)c(-c2c(-c3ccc(SC4CC4)cc3)sc3ccc(F)cc23)c1O` [2-254], the “herbicidal effect rating, A: late watergrass” value was 4 (Herbicidal rate of 70% or more and less than 90%).

The subject of the next assay is Japanese bulrush. Put plainly: Test Example 2: herbicidal activity, application during weed generation under submerged conditions (Table 17, symbol B). The class given is in vivo, Japanese bulrush (Schoenoplectus juncoides). To be noted: AAH 320 g/ha; application during weed generation, submerged conditions. Put shortly:
as §3
`CCCC(=O)Oc1c(C)nn(C)c(=O)c1-c1c(-c2ccc(SCC)cc2)sc2ccc(F)cc12` [2-245]: the “herbicidal effect rating, B: Japanese bulrush” value was 3 (Herbicidal rate of 40% or more and less than 70%).

Consider `Cc1nn(C)c(=O)c(-c2c(-c3ccc(SC4CC4)cc3)sc3ccc(F)cc23)c1O` [2-254], for which the “herbicidal effect rating, B: Japanese bulrush” value is given as 0 (Herbicidal rate of 5% or less (almost no effect)).

The subject of a further assay is Italian ryegrass. Nature of the assay: Test Example 5: herbicidal effect by foliage application, plastic box (Table 20, symbol K). The settings on record: foliage application, 320 g/ha, evaluated three weeks after application. The class given is in vivo, Italian ryegrass (Lolium multiflorum). Put shortly:
as §1
On to `CCCC(=O)Oc1c(C)nn(C)c(=O)c1-c1c(-c2ccc(SCC)cc2)sc2ccc(F)cc12` [2-245], for which the “herbicidal effect on K: Italian ryegrass (criteria 0-5)” value is 5 (Herbicidal rate of 90% or more (almost completely withered)).

The assay is the same for the next values; noted with them: foliage application, AAH 320 g/ha, evaluated three weeks after application.
Take `Cc1nn(C)c(=O)c(-c2c(-c3ccc(SC4CC4)cc3)sc3ccc(F)cc23)c1O` [2-254]: the “K: Italian ryegrass, herbicidal effect (criteria 0-5)” value is recorded as 5 (Herbicidal rate of 90% or more (almost completely withered)).

The subject of another assay is green foxtail. Put plainly: Test Example 5: herbicidal effect by foliage application, plastic box (Table 20, symbol G). The class given is in vivo, green foxtail (Setaria viridis). The settings on record: foliage application, 320 g/ha, evaluated three weeks after application. An outline of the steps: as §1
For `CCCC(=O)Oc1c(C)nn(C)c(=O)c1-c1c(-c2ccc(SCC)cc2)sc2ccc(F)cc12` [2-245], the “herbicidal effect on G: green foxtail (criteria 0-5)” value was 5 (Herbicidal rate of 90% or more (almost completely withered)).

Staying with this assay, now noted: foliage application, AAH 320 g/ha, evaluated three weeks after application.
`Cc1nn(C)c(=O)c(-c2c(-c3ccc(SC4CC4)cc3)sc3ccc(F)cc23)c1O` [2-254]: the “G: green foxtail, herbicidal effect (criteria 0-5)” value is 5 (Herbicidal rate of 90% or more (almost completely withered)).

In a further assay the test system is barnyard grass. Put plainly: Test Example 4: herbicidal effect by soil treatment (Table 19, symbol H). The class given is in vivo, barnyard grass (Echinochloa crus-galli). To be noted: amount of applied herbicide 320 g/ha. Put shortly: as §2
Regarding `CCCC(=O)Oc1c(C)nn(C)c(=O)c1-c1c(-c2ccc(SCC)cc2)sc2ccc(F)cc12` [2-245], the “herbicidal effect on H: barnyard grass” value is recorded as 5 (Herbicidal rate of 90% or more (almost completely withered)).

Consider `Cc1nn(C)c(=O)c(-c2c(-c3ccc(SC4CC4)cc3)sc3ccc(F)cc23)c1O` [2-254], for which the “herbicidal effect on H: barnyard grass” value was 5 (Herbicidal rate of 90% or more (almost completely withered)).

The test system of a further assay is redroot pigweed. Put plainly: Test Example 4: herbicidal effect by soil treatment (Table 19, symbol N). The class given is in vivo, redroot pigweed (Amaranthus retroflexus). To be noted: amount of applied herbicide 320 g/ha. Put shortly: as §2
Take `CCCC(=O)Oc1c(C)nn(C)c(=O)c1-c1c(-c2ccc(SCC)cc2)sc2ccc(F)cc12` [2-245]: the “herbicidal effect on N: redroot pigweed” value is on record as 5 (Herbicidal rate of 90% or more (almost completely withered)).

Regarding `Cc1nn(C)c(=O)c(-c2c(-c3ccc(SC4CC4)cc3)sc3ccc(F)cc23)c1O` [2-254], the “herbicidal effect on N: redroot pigweed” value is listed as 5 (Herbicidal rate of 90% or more (almost completely withered)).

A further assay relates to wild oat. Nature of the assay: Test Example 4: herbicidal effect by soil treatment (Table 19, symbol I). The format is in vivo, wild oat (Avena fatua). To be noted: amount of applied herbicide 320 g/ha. Put shortly:
as §2
As for `CCCC(=O)Oc1c(C)nn(C)c(=O)c1-c1c(-c2ccc(SCC)cc2)sc2ccc(F)cc12` [2-245], the “herbicidal effect on I: wild oat” value is 2 (Herbicidal rate of 20% or more and less than 40%).

For the compound `Cc1nn(C)c(=O)c(-c2c(-c3ccc(SC4CC4)cc3)sc3ccc(F)cc23)c1O` [2-254], the “herbicidal effect on I: wild oat” value was 1 (Herbicidal rate of 5% or more and less than 20%).

The subject of the next assay is oval-leafed pondweed. Nature of the assay: Test Example 2: herbicidal activity, application during weed generation under submerged conditions (Table 17, symbol C). The format is in vivo, oval-leafed pondweed (Monochoria vaginalis). The settings on record: AAH 320 g/ha; application during weed generation, submerged conditions. An outline of the steps: as §3
Take `CCCC(=O)Oc1c(C)nn(C)c(=O)c1-c1c(-c2ccc(SCC)cc2)sc2ccc(F)cc12` [2-245]: the “herbicidal effect rating, C: oval-leafed pondweed” value is 4 (Herbicidal rate of 70% or more and less than 90%).

On to `Cc1nn(C)c(=O)c(-c2c(-c3ccc(SC4CC4)cc3)sc3ccc(F)cc23)c1O` [2-254], for which the “herbicidal effect rating, C: oval-leafed pondweed” value is 0 (Herbicidal rate of 5% or less (almost no effect)).

Another assay relates to lambsquarters. Nature of the assay: Test Example 5: herbicidal effect by foliage application, plastic box (Table 20, symbol O). The class given is in vivo, lambsquarters (Chenopodium album). To be noted: foliage application, 320 g/ha, evaluated three weeks after application. Put shortly: as §1
Turning to `CCCC(=O)Oc1c(C)nn(C)c(=O)c1-c1c(-c2ccc(SCC)cc2)sc2ccc(F)cc12` [2-245], the “herbicidal effect on O: lambsquarters (criteria 0-5)” value is 5 (Herbicidal rate of 90% or more (almost completely withered)).

The assay is the same for the next values; noted with them: foliage application, AAH 320 g/ha, evaluated three weeks after application.
`Cc1nn(C)c(=O)c(-c2c(-c3ccc(SC4CC4)cc3)sc3ccc(F)cc23)c1O` [2-254]: the “O: lambsquarters, herbicidal effect (criteria 0-5)” value is 5 (Herbicidal rate of 90% or more (almost completely withered)).

The record behind these values is patent US20230085307A1, “PYRIDAZINONE COMPOUND AND HERBICIDE” (NISSAN CHEMICAL CORPORATION, priority 2019, published 2023).
